Experimental data from patent US12116635B2, “Methods for detecting and treating cancers having adenosine pathway activation” (Corvus Pharmaceuticals, Inc., priority 2018, dated 2024).
“Also recorded” adds a separate entry of the source.

Legend:
[1] = tested on: human peripheral blood mononuclear cells (PBMCs); experiment: NanoString quantification of mRNA in NECA-treated, anti-CD3/CD28-activated PBMCs; assay type: cell-based; details: 0.1 μM, 1 μM, and/or 10 μM NECA vs vehicle-treated control
Protocol: (§1) RNA purified from normal, healthy human peripheral blood mononuclear cells (PBMCs) treated with 5′-N-ethylcarboxamidoadenosine (NECA) and activated with anti-CD3/CD28 antibody were analyzed by NanoString hybridization-based quantification (NanoString Technologies, Inc.). […] Each dot represents the expression level of a specific gene. Dot shade represents the concentration of NECA used and/or different PBMC donors.

[2] = tested on: human peripheral blood mononuclear cells (PBMCs); experiment: RNA sequencing (RNA-Seq) of NECA-treated PBMCs; assay type: cell-based
Protocol: as §1, with “donors. […] Data were confirmed by RNA sequencing (RNA-Seq).” for “donors.”

PBMCs = experiment: CXCL5 protein ELISA in culture supernatants of PBMCs treated with NECA +/- CPI-444; assay type: cell-based, human
Protocol: Expression of CXCL5 was determined by ELISA 2 days after activation.
FIGS. 2B and 2C show the response of PBMCs from two different donors to NECA+/−CPI-444 treatment. DMSO was used as vehicle control. […] This control helps establish that the induction of CXCL5 is specific to signaling through adenosine receptors.
NECA activation of CXCL5 protein expression was evaluated. PBMCs were harvested from two different human donors. […] CPI-444 (Corvus Pharmaceuticals) is an antagonist of the adenosine A2A receptor. CXCL5 protein in the culture supernatants was evaluated by ELISA two days after activation. CXCL5 expression is activated by NECA. […] This establishes that the induction of CXCL5 is specific to signaling through adenosine receptors.

A2AR = experiment: In vitro A2AR stimulation gene signature +/- CPI-444 (transcript and protein); assay type: cell-based, human; details: at the transcript and protein level
Protocol: RNA purified from normal, healthy human peripheral blood mononuclear cells (PBMCs) treated with 5′-N-ethylcarboxamidoadenosine (NECA) and activated with anti-CD3/CD28 antibody were analyzed by NanoString hybridization-based quantification (NanoString Technologies, Inc.). […] Each dot represents the expression level of a specific gene. Dot shade represents the concentration of NECA used and/or different PBMC donors. […] Increases in monocyte/macrophage inflammatory mediators such as IL-1b and CCL2, 3, 7, 8, 20 were also observed, as were increases in SERPINB2, S100A8, PTGS2, THBS1. Expression of CXCL10 and GZMB were decreased, consistent with a suppressed IFNg response. […] A2AR agonists induce a specific gene signature (increase in a certain subset of genes and/or decrease in a second subset of genes) dominated by immunosuppressive mediators of MDSC and monocyte/macrophage biology. Inhibition of these genes by CPI-444 are observed. These gene signatures may be used as biomarkers for patient selection.

advanced cancers = experiment: Ongoing phase 1/1b trial in patients with advanced cancers; assay type: in vivo, human; details: as a monotherapy and in combination with atezolizumab
Source text: “Adenosine receptor antagonist” refers to a molecule that inhibits activity of adenosine receptors (e.g. A2A or A2B receptors), typically through direct action. Adenosine receptors antagonists can be small or large molecule antagonists. In embodiments, CPI-444 is an example A2A receptor antagonist. […] CPI-444 is described, for example, in PCT Patent Publication No. WO 2017/112917; each of which is incorporated herein by reference in its entirety.

CCNC(=O)[C@H]1O[C@@H](n2cnc3c(N)ncnc32)[C@H](O)[C@@H]1O [NECA, 5′-N-ethylcarboxamidoadenosine]
logFC CD14 [1]: 0.4485 | logFC CD86 [1]: 0.3148 | logFC CLEC5A [1]: 0.3833 | logFC CXCL1 [1]: 0.6909 | logFC CXCL2 [1]: 1.093 | logFC CXCL3 [1]: 1.101 | logFC CXCL5 [1]: 1.338 | logFC CXCL6 [1]: 0.6535 | logFC IL1A [1]: 0.6367 | logFC IL1B [1]: 0.6345 | logFC IL6 [1]: 0.7014 | logFC IL8 [1]: 0.6411 | logFC IL23A [1]: 0.4628 | logFC IL24 [1]: 0.5768 | logFC PLAUR [1]: 0.5031 | logFC PPBP [1]: 0.683 | logFC PTGS2 [1]: 0.6892 | logFC SLC11A1 [1]: 0.7022 | logFC TBX21 [1]: −0.1238 | logFC THBS1 [1]: 0.8703 | logFC CCL24 ([2]; Control (DMSO) vs 0.1 μm NECA): −1.068 | logFC CD93 ([2]; Control (DMSO) vs 0.1 μm NECA): 0.9975 | logFC CSF3 ([2]; Control (DMSO) vs 0.1 μm NECA): 1.603 | logFC CXCL2 ([2]; Control (DMSO) vs 0.1 μm NECA): 1.452 | logFC CXCL3 ([2]; Control (DMSO) vs 0.1 μm NECA): 1.694 | logFC CXCL5 ([2]; Control (DMSO) vs 0.1 μm NECA): 2.388 | logFC EHF ([2]; Control (DMSO) vs 0.1 μm NECA): −0.2753 | logFC EML6 ([2]; Control (DMSO) vs 0.1 μm NECA): 0.2117 | logFC EPB41L3 ([2]; Control (DMSO) vs 0.1 μm NECA): 1.183 | logFC FUT7 ([2]; Control (DMSO) vs 0.1 μm NECA): −0.2135 | logFC HAS1 ([2]; Control (DMSO) vs 0.1 μm NECA): 2.059 | logFC IL23A ([2]; Control (DMSO) vs 0.1 μm NECA): 0.7971 | logFC INHBA ([2]; Control (DMSO) vs 0.1 μm NECA): 0.5196 | logFC KLC4 ([2]; Control (DMSO) vs 0.1 μm NECA): 0.216 | logFC LAYN ([2]; Control (DMSO) vs 0.1 μm NECA): 0.4228 | logFC MRPL11 ([2]; Control (DMSO) vs 0.1 μm NECA): −0.19 | logFC MS4A7 ([2]; Control (DMSO) vs 0.1 μm NECA): 0.9319 | logFC NPR1 ([2]; Control (DMSO) vs 0.1 μm NECA): 0.7892 | logFC OST4 ([2]; Control (DMSO) vs 0.1 μm NECA): 0.2352 | logFC PADI2 ([2]; Control (DMSO) vs 0.1 μm NECA): 0.4802 | logFC PTGS2 ([2]; Control (DMSO) vs 0.1 μm NECA): 1.184 | logFC SLC7A7 ([2]; Control (DMSO) vs 0.1 μm NECA): 0.5935 | logFC SPON1 ([2]; Control (DMSO) vs 0.1 μm NECA): 0.3611 | logFC ST6GALNAC2 ([2]; Control (DMSO) vs 0.1 μm NECA): 0.5342 | logFC SYTL3 ([2]; Control (DMSO) vs 0.1 μm NECA): 0.2894 | logFC WDR83OS ([2]; Control (DMSO) vs 0.1 μm NECA): −0.2872 | logFC ZBTB18 ([2]; Control (DMSO) vs 0.1 μm NECA): 0.2431 | logFC CCDC60 ([2]; Control (DMSO) vs 1 μm NECA): 0.07658 | logFC CD93 ([2]; Control (DMSO) vs 1 μm NECA): 1.454 | logFC CSF3 ([2]; Control (DMSO) vs 1 μm NECA): 2.802 | logFC CXCL2 ([2]; Control (DMSO) vs 1 μm NECA): 2.361 | logFC CXCL3 ([2]; Control (DMSO) vs 1 μm NECA): 2.573 | logFC CXCL5 ([2]; Control (DMSO) vs 1 μm NECA): 3.451 | logFC EHF ([2]; Control (DMSO) vs 1 μm NECA): −0.2522 | logFC EMR3 ([2]; Control (DMSO) vs 1 μm NECA): 1.364 | logFC EPB41L3 ([2]; Control (DMSO) vs 1 μm NECA): 1.854 | logFC EREG ([2]; Control (DMSO) vs 1 μm NECA): 1.89 | logFC FUT7 ([2]; Control (DMSO) vs 1 μm NECA): −0.4158 | logFC GPR157 ([2]; Control (DMSO) vs 1 μm NECA): 0.9283 | logFC HAS1 ([2]; Control (DMSO) vs 1 μm NECA): 3.238 | logFC IL23A ([2]; Control (DMSO) vs 1 μm NECA): 1.363 | logFC IL24 ([2]; Control (DMSO) vs 1 μm NECA): 2.876 | logFC INHBA ([2]; Control (DMSO) vs 1 μm NECA): 0.9638 | logFC LAYN ([2]; Control (DMSO) vs 1 μm NECA): 0.5277 | logFC MS4A7 ([2]; Control (DMSO) vs 1 μm NECA): 1.535 | logFC OST4 ([2]; Control (DMSO) vs 1 μm NECA): −0.1747 | logFC PADI2 ([2]; Control (DMSO) vs 1 μm NECA): 0.7173 | logFC PID1 ([2]; Control (DMSO) vs 1 μm NECA): 1.729 | logFC PTGS2 ([2]; Control (DMSO) vs 1 μm NECA): 2.23 | logFC SLC7A7 ([2]; Control (DMSO) vs 1 μm NECA): 0.9514 | logFC SPON1 ([2]; Control (DMSO) vs 1 μm NECA): 0.5667 | logFC ST6GALNAC2 ([2]; Control (DMSO) vs 1 μm NECA): 0.8306 | logFC TGIF1 ([2]; Control (DMSO) vs 1 μm NECA): 0.4769 | logFC ZBTB18 ([2]; Control (DMSO) vs 1 μm NECA): 0.3385 | logFC CCNE1 ([2]; Control (DMSO) vs 10 μm NECA): −0.4518 | logFC CD93 ([2]; Control (DMSO) vs 10 μm NECA): 1.895 | logFC CD300E ([2]; Control (DMSO) vs 10 μm NECA): 1.71 | logFC CSF3 ([2]; Control (DMSO) vs 10 μm NECA): 3.508 | logFC CXCL2 ([2]; Control (DMSO) vs 10 μm NECA): 3.011 | logFC CXCL3 ([2]; Control (DMSO) vs 10 μm NECA): 3.106 | logFC CXCL5 ([2]; Control (DMSO) vs 10 μm NECA): 3.354 | logFC DENA5 ([2]; Control (DMSO) vs 10 μm NECA): 0.6559 | logFC ECEL1 ([2]; Control (DMSO) vs 10 μm NECA): 0.6918 | logFC EPB41L3 ([2]; Control (DMSO) vs 10 μm NECA): 2 | logFC GALM ([2]; Control (DMSO) vs 10 μm NECA): −0.3189 | logFC GBP6 ([2]; Control (DMSO) vs 10 μm NECA): −0.8039 | logFC GPR157 ([2]; Control (DMSO) vs 10 μm NECA): 1.139 | logFC HAS1 ([2]; Control (DMSO) vs 10 μm NECA): 3.807 | logFC IL5 ([2]; Control (DMSO) vs 10 μm NECA): −0.6885 | logFC IL23A ([2]; Control (DMSO) vs 10 μm NECA): 1.332 | logFC INHBA ([2]; Control (DMSO) vs 10 μm NECA): 1.192 | logFC LAP3 ([2]; Control (DMSO) vs 10 μm NECA): −0.4286 | logFC LOC100505585 ([2]; Control (DMSO) vs 10 μm NECA): 0.6639 | logFC NID1 ([2]; Control (DMSO) vs 10 μm NECA): 1.087 | logFC PADI2 ([2]; Control (DMSO) vs 10 μm NECA): 0.9386 | logFC PID1 ([2]; Control (DMSO) vs 10 μm NECA): 2.124 | logFC PTGS2 ([2]; Control (DMSO) vs 10 μm NECA): 2.349 | logFC RHCG ([2]; Control (DMSO) vs 10 μm NECA): 0.5767 | logFC SLC7A7 ([2]; Control (DMSO) vs 10 μm NECA): 0.9134 | logFC SPON1 ([2]; Control (DMSO) vs 10 μm NECA): 0.568 | logFC ST6GALNAC2 ([2]; Control (DMSO) vs 10 μm NECA): 0.876 | CXCL5 protein in the culture supernatants (ELISA) (PBMCs; PBMCs from two human donors, anti-CD3/CD28 activated, two days after activation, vs DMSO): activated; also recorded: dose-dependent increase in CXCL5

Cc1ccc(-c2nc(N)nc3c2nnn3Cc2cccc(CO[C@H]3CCOC3)n2)o1 [CPI-444, (S)-7-(5-methylfuran-2-yl)-3-((6-(((tetrahydrofuran-3-yl)oxy)methyl)pyridin-2-yl)methyl)-3H-[1,2,3]triazolo[4,5-d]pyrimidin-5-amine]
Blocking of NECA-induced CXCL5 protein expression (PBMCs; PBMCs treated with NECA, followed by CPI-444, then anti-CD3/CD28, ELISA two days after activation): can be blocked | Inhibition of A2AR-stimulation-induced gene expression changes (A2AR): inhibited these changes | anti-tumor activity (advanced cancers): demonstrated anti-tumor activity
